According to US20150246093A1, “ORAL FORMULATIONS OF ANGIOTENSIN” (TARIX PHARMACEUTICALS LTD., priority 2012, published 2015):
Where “and” joins values, the source holds several entries; their conditions need not be identical. Equal values may be shown once. Read-outs that look alike come from different tables or passages of the source.

Experiment: Pharmacokinetics after intra-duodenal injection (ID) in anesthetized rats, model mimicking enteric-coated oral dosage form, plasma LC-MS
Format: in vivo, rat
Conditions: for Total mean A(1-7) exposure over the observation period: ID; for level at 0 h / level at 10 min / level at 20 min / level at 40 min / level at 1 h / level at 1.5 h / level at 5 min: read-out: Angiotensin (1-7) concentration
Protocol: This model mimics the release and absorption expected from an orally delivered enteric coated solid dosage form such as capsule or tablet.
After extraction, the samples were then transferred to ice-cold tubes containing a protease inhibitor cocktail. The samples were kept on ice until they were centrifuged at 4° C. to obtain plasma. The plasma supernatants were then frozen −70° C. until analysis using an LC-MS assay.
The oral delivery of an angiotensin (1-7) peptide (e.g., TXA127) was then evaluated in a rat model that mimics the release of the peptide into the intestine by enteric-coated capsule. Briefly, the duodenums of anesthetized rats were surgically exposed, and an angiotensin (1-7) peptide was delivered through a 27 gauge needle into the duodenum. A baseline was obtained by ID administration of an angiotensin (1-7) in PBS. Samples of blood was removed from the carotid artery before and 5, 10, 20, 40, 60 and 90 minutes after peptide administration. Subsequently, an angiotensin (1-7) peptide was administered ID in 400 mM citrate buffer (pH 3.5) and lauroyl-L-carnitine (LLC) (10 mg/ml), a formulation that mimics the contents of the enteric-coated capsules. In order to maximize the stability of TXA127 in rat circulation, captopril (e.g., 0.5 mg/ml or 5 mg/ml) may be added to the formulations. Blood samples were taken at the same time points as the baseline study and handled as described above for analysis.

[1] = ID 0.3 ml A [10 mg/ml in PBS], individual rats
[2] = ID 0.3 ml B [10 mg/ml, 10 mg/ml LLC, 400 mM Citrate pH 3.5, 150 mM NaCl], individual rats
[3] = ID 0.3 ml C [10 mg/ml, Captopril 0.5 mg/ml, 10 mg/ml LLC, 400 mM Citrate pH 3.5, 150 mM NaCl], individual rats
[4] = ID 0.3 ml C [10 mg/ml, Captopril 5 mg/ml, 10 mg/ml LLC, 400 mM Citrate pH 3.5, 150 mM NaCl], individual rats

- Half-Life [1]: 51 min and 140 min and 23 min and 7 min
- Angiotensin (1-7) concentration (ID 0.3 ml B [10 mg/ml, 10 mg/ml LLC, 400 mM Citrate pH 3.5, 150 mM NaCl], time point 0 min (before administration), individual rats): 1.46 ng/mL
- Angiotensin (1-7) concentration (ID 0.3 ml C [10 mg/ml, Captopril 0.5 mg/ml, 10 mg/ml LLC, 400 mM Citrate pH 3.5, 150 mM NaCl], time point 0 min (before administration), Average): 1.1 ng/mL
- Angiotensin (1-7) concentration (ID 0.3 ml C [10 mg/ml, Captopril 5 mg/ml, 10 mg/ml LLC, 400 mM Citrate pH 3.5, 150 mM NaCl], time point 0 min (before administration), Average): 2.42 ng/mL
- Total mean A(1-7) exposure over the observation period (0.3 mL of 10 mg/mL A(1-7) formulated in PBS, 6 rats): 403 ng·min/mL
- Total mean A(1-7) exposure over the observation period (0.3 mL of 10 mg/mL A(1-7) with 0.5 mg/mL captopril (as printed in the text on Table 5), 10 mg/mL LLC, 400 mM Citrate, 150 mM NaCl pH 3.5, six rats): 9,399 ng*min/mL
- Total mean A(1-7) exposure over the observation period (0.3 mL of 10 mg/mL A(1-7) with 0.5 mg/mL captopril, 10 mg/mL LLC, 400 mM Citrate, 150 mM NaCl pH 3.5, seven rats (Table 4)): 7,152 ng*min/mL
- Total mean A(1-7) exposure over the observation period (0.3 mL of 10 mg/mL A(1-7) with 10 mg/mL LLC, 400 mM Citrate, 150 mM NaCl pH 3.5): 4,274 ng*min/mL
- level at 0 h (rat, plasma, 3 mg per rat, pH 3.5, ID 0.3 ml B [10 mg/ml, 10 mg/ml LLC, 400 mM Citrate pH 3.5, 150 mM NaCl], time point 0 min (before administration), Average): 1.51 ng/mL
- level at 10 min (rat, plasma, 3 mg per rat, pH 3.5, ID 0.3 ml B [10 mg/ml, 10 mg/ml LLC, 400 mM Citrate pH 3.5, 150 mM NaCl], time point 10 min, Average): 204 ng/mL
- level at 20 min (rat, plasma, 3 mg per rat, pH 3.5, ID 0.3 ml B [10 mg/ml, 10 mg/ml LLC, 400 mM Citrate pH 3.5, 150 mM NaCl], time point 20 min, Average): 24.8 ng/mL
- level at 40 min (rat, plasma, 3 mg per rat, pH 3.5, ID 0.3 ml B [10 mg/ml, 10 mg/ml LLC, 400 mM Citrate pH 3.5, 150 mM NaCl], time point 40 min, Average): 5.11 ng/mL
- level at 1 h (rat, plasma, 3 mg per rat, pH 3.5, ID 0.3 ml B [10 mg/ml, 10 mg/ml LLC, 400 mM Citrate pH 3.5, 150 mM NaCl], time point 60 min, Average): 5.2 ng/mL
- level at 1.5 h (rat, plasma, 3 mg per rat, pH 3.5, ID 0.3 ml B [10 mg/ml, 10 mg/ml LLC, 400 mM Citrate pH 3.5, 150 mM NaCl], time point 90 min, Average): 3.6 ng/mL
- level at 0 h (rat, plasma, 3 mg, ID 0.3 ml A [10 mg/ml in PBS], time point 0 min (before administration), Average): 1.74 ng/mL
- level at 5 min (rat, plasma, 3 mg, ID 0.3 ml A [10 mg/ml in PBS], time point 5 min, Average): 4.18 ng/mL
- level at 10 min (rat, plasma, 3 mg, ID 0.3 ml A [10 mg/ml in PBS], time point 10 min, Average): 2.85 ng/mL
- level at 20 min (rat, plasma, 3 mg, ID 0.3 ml A [10 mg/ml in PBS], time point 20 min, Average): 3.58 ng/mL
- level at 40 min (rat, plasma, 3 mg, ID 0.3 ml A [10 mg/ml in PBS], time point 40 min, Average): 4.37 ng/mL
- level at 1 h (rat, plasma, 3 mg, ID 0.3 ml A [10 mg/ml in PBS], time point 60 min, Average): 5.67 ng/mL
- level at 1.5 h (rat, plasma, 3 mg, ID 0.3 ml A [10 mg/ml in PBS], time point 90 min, Average): 4.96 ng/mL
- level at 5 min (rat, plasma, 3 mg, pH 3.5, ID 0.3 ml B [10 mg/ml, 10 mg/ml LLC, 400 mM Citrate pH 3.5, 150 mM NaCl], time point 5 min, Average): 417 ng/mL
- AUC(0-t) (rat, plasma, other: intra-duodenal injection (ID), 3 mg, ID 0.3 ml A [10 mg/ml in PBS], Average (PK value of the mean concentrations), read-out: AUC0-90 (converted)): 6.73 ng·h/mL
- Cmax (rat, plasma, other: intra-duodenal injection (ID), 3 mg, ID 0.3 ml A [10 mg/ml in PBS], Average (PK value of the mean concentrations), read-out: Cmax): 5.7 ng/mL
- Half-Life (rat, plasma, other: intra-duodenal injection (ID), 3 mg, ID 0.3 ml A [10 mg/ml in PBS], Average (PK value of the mean concentrations), read-out: Half-Life): 155 min
Compound: CC[C@H](C)[C@H](NC(=O)[C@H](Cc1ccc(O)cc1)NC(=O)[C@@H](NC(=O)[C@H](CCCNC(=N)N)NC(=O)[C@@H](N)CC(=O)O)C(C)C)C(=O)N[C@@H](Cc1c[nH]cn1)C(=O)N1CCC[C@H]1C(=O)O [Angiotensin (1-7), Asp^1-Arg^2-Val^3-Tyr^4-Ile^5-His^6-Pro^7]
- AUC0-90 [1]: 123 ng·min/mL and 881 ng·min/mL and 181 ng·min/mL and 456 ng·min/mL and 166 ng·min/mL and 616 ng·min/mL
- Cmax [1]: 3.44 ng/mL and 15 ng/mL and 4 ng/mL and 9 ng/mL and 3 ng/mL and 10.4 ng/mL
- Angiotensin (1-7) concentration (ID 0.3 ml A [10 mg/ml in PBS], time point 0 min (before administration), individual rats): 0.23 ng/mL and 0.0 ng/mL and 1.54 ng/mL and 1.00 ng/mL and 1.84 ng/mL and 5.81 ng/mL
- Angiotensin (1-7) concentration (ID 0.3 ml A [10 mg/ml in PBS], time point 5 min, individual rats): 0.84 ng/mL and 12.3 ng/mL and 0.94 ng/mL and 0.88 ng/mL and 0.891 ng/mL and 9.24 ng/mL
- Angiotensin (1-7) concentration (ID 0.3 ml A [10 mg/ml in PBS], time point 10 min, individual rats): 3.44 ng/mL and 6.38 ng/mL and 1.08 ng/mL and 0.99 ng/mL and 1.12 ng/mL and 4.08 ng/mL
- Angiotensin (1-7) concentration (ID 0.3 ml A [10 mg/ml in PBS], time point 20 min, individual rats): 0.62 ng/mL and 13.3 ng/mL and 1.91 ng/mL and 1.79 ng/mL and 1.80 ng/mL and 2.05 ng/mL
- Angiotensin (1-7) concentration (ID 0.3 ml A [10 mg/ml in PBS], time point 40 min, individual rats): 0.27 ng/mL and 15.4 ng/mL and 1.22 ng/mL and 4.14 ng/mL and 1.30 ng/mL and 3.89 ng/mL
- Angiotensin (1-7) concentration (ID 0.3 ml A [10 mg/ml in PBS], time point 60 min, individual rats): 1.55 ng/mL and 6.27 ng/mL and 3.97 ng/mL and 8.75 ng/mL and 3.07 ng/mL and 10.4 ng/mL
- Angiotensin (1-7) concentration (ID 0.3 ml A [10 mg/ml in PBS], time point 90 min, individual rats): 2.61 ng/mL and 7.19 ng/mL and 0.78 ng/mL and 7.54 ng/mL and 1.23 ng/mL and 10.4 ng/mL
- AUC0-90 [2]: 19,502.2 ng*min/mL and 1,777.5 ng*min/mL and 422.8 ng*min/mL and 1,168.2 ng*min/mL and 2,100.6 ng*min/mL and 669.9 ng*min/mL
- Cmax [2]: >1000 ng/mL and 259.0 ng/mL and 19.3 ng/mL and 89.7 ng/mL and 60.7 ng/mL and 56.4 ng/mL
- Half-Life [2]: 9.3 min and 173.3 min and 23.8 min and 25.2 min and 21.6 min and 25.0 min
- Angiotensin (1-7) concentration (ID 0.3 ml B [10 mg/ml, 10 mg/ml LLC, 400 mM Citrate pH 3.5, 150 mM NaCl], time point 5 min, individual rats): >1000 ng/mL and 259 ng/mL and 3.48 ng/mL and 89.7 ng/mL and 60.7 ng/mL and 56.38 ng/mL
- Angiotensin (1-7) concentration (ID 0.3 ml B [10 mg/ml, 10 mg/ml LLC, 400 mM Citrate pH 3.5, 150 mM NaCl], time point 10 min, individual rats): >1000 ng/mL and 21 ng/mL and 19.3 ng/mL and 15.2 ng/mL and 59.6 ng/mL and 17.92 ng/mL
- Angiotensin (1-7) concentration (ID 0.3 ml B [10 mg/ml, 10 mg/ml LLC, 400 mM Citrate pH 3.5, 150 mM NaCl], time point 20 min, individual rats): 59.9 ng/mL and 7.35 ng/mL and 6.02 ng/mL (2×) and 18.4 ng/mL and 51.2 ng/mL
- Angiotensin (1-7) concentration (ID 0.3 ml B [10 mg/ml, 10 mg/ml LLC, 400 mM Citrate pH 3.5, 150 mM NaCl], time point 40 min, individual rats): 4.88 ng/mL and 5.6 ng/mL and 2.32 ng/mL and 5.05 ng/mL and 11.7 ng/mL and 1.11 ng/mL
- Angiotensin (1-7) concentration (ID 0.3 ml B [10 mg/ml, 10 mg/ml LLC, 400 mM Citrate pH 3.5, 150 mM NaCl], time point 60 min, individual rats): 4.74 ng/mL and 1.7 ng/mL and 3.99 ng/mL and 6.36 ng/mL and 10.9 ng/mL and 3.48 ng/mL
- Angiotensin (1-7) concentration (ID 0.3 ml B [10 mg/ml, 10 mg/ml LLC, 400 mM Citrate pH 3.5, 150 mM NaCl], time point 90 min, individual rats): 3.93 ng/mL and 3.99 ng/mL and 1.11 ng/mL and 4.43 ng/mL and 4.74 ng/mL and 3.39 ng/mL
- AUC0-90 [3]: 9,257 ng*min/mL and 20,442 ng*min/mL and 7,394 ng*min/mL and 2,252 ng*min/mL (2×) and 6,495 ng*min/mL
- Cmax [3]: 879.0 ng/mL and >1000 ng/mL and 468.0 ng/mL and 83.0 ng/mL (2×) and 735.0 ng/mL
- Half-Life [3]: 11.9 min and 29.1 min and 13.9 min and 18.3 min (2×) and 17.9 min
- AUC0-90 [4]: 26,654 ng*min/mL and 1,008 ng*min/mL and 7,641 ng*min/mL and 10,668 ng*min/mL and 6,228 ng*min/mL and 3,862 ng*min/mL
- Cmax [4]: <1000 ng/mL and 33.5 ng/mL and 504 ng/mL and 746.0 ng/mL and 391.25 ng/mL and 432.85 ng/mL
- Half-Life [4]: 10.55 min and 7.97 min and 15.45 min and 11.94 min and 12.86 min and 25.62 min
- Half-life and total exposure compared to the baseline profile of angiotensin (1-7) delivered in PBS (formulation according to the invention (citrate, LLC, with or without captopril), rat model mimicking oral delivery): significantly improved half-life and total exposure
